Data reported in patent US9539239B1, “Compositions and methods for treatment of neurodegenerative disease” (priority 2010, dated 2017).

How the values were obtained:
[1] = tested on: retinal ganglion cells (RGCs); test: RGC survival in primary retinal ganglion cell culture (high-content screening); format: cell-based, mouse and rat; settings: potency relative to sunitinib; baseline culture with 2.5 μM forskolin
Procedure: (§1) In this Example, certain compounds were administered to retinal ganglion cells (RGCs) in cell culture to determine the effects of the compounds on neuronal count and neurite growth.
We established a robust high-content screening system combining the immunopanning- or other immunobead-based purification of primary mouse and rat RGCs and automated fluorescence-based imaging analysis (see, e.g., U.S. Patent Publication No. 2007/0185069, incorporated herein by reference). To enhance the assay sensitivity, the culture condition is defined to support a baseline level of RGC viability (20˜60% surviving RGCs after three days in culture) and neurite growth by 2.5 μM forskolin. […]

[2] = tested on: retinal ganglion cells (RGCs); test: RGC neurite growth in primary retinal ganglion cell culture (high-content screening); format: cell-based, mouse and rat; settings: potency relative to sunitinib; baseline culture with 2.5 μM forskolin
Procedure: as §1
We established a robust high-content screening system combining the immunopanning- or other immunobead-based purification of primary mouse and rat RGCs and automated fluorescence-based imaging analysis (see, e.g., U.S. Patent Publication No. 2007/0185069, incorporated herein by reference). To enhance the assay sensitivity, the culture condition is defined to support a baseline level of RGC viability (20˜60% surviving RGCs after three days in culture) and neurite growth by 2.5 μM forskolin.
In addition, certain tested compounds stimulated RGC neurite growth.

[3] = tested on: RGC; test: Effect of FLT3 ligand on RGC survival; format: cell-based
[4] = cited from earlier work

Cc1[nH]c(/C=C2\C(=O)Nc3ccc([S+](C)[O-])cc32)c(C)c1C(=O)N1CCOCC1 (centres unmarked)
RGC Survival Activity [1]: ** (approximately 40-80% as potent as sunitinib)

Cc1[nH]c(/C=C2\C(=O)Nc3ccc([S+](C)[O-])cc32)c(C)c1C(=O)N1CCN(C)CC1 (centres unmarked)
RGC Survival Activity [1]: * (approximately 10-40% as potent as sunitinib)

C[S+]([O-])c1ccc2c(c1)/C(=C/c1cc3c([nH]1)CC(C)(C)CC3=O)C(=O)N2 (centres unmarked) [Example 2]
RGC Survival Activity [1]: *** (at least approximately 80% as potent as sunitinib)

C[S+]([O-])c1ccc2c(c1)/C(=C/c1cc3c([nH]1)CCCC3=O)C(=O)N2 (centres unmarked) [Example 3]
RGC Survival Activity [1]: *** (at least approximately 80% as potent as sunitinib)

Cc1c([S+](C)[O-])ccc2c1/C(=C/c1cc3c([nH]1)CCCC3)C(=O)N2 (centres unmarked) [Example 5]
RGC Survival Activity [1]: * (approximately 10-40% as potent as sunitinib)
Neurite Promotion [2]: ** (approximately 40-80% as potent as sunitinib)

C[S+]([O-])c1ccc2c(c1)/C(=C/c1cc3c([nH]1)CCCC3)C(=O)N2 (centres unmarked) [Example 6]
RGC Survival Activity [1]: *** (at least approximately 80% as potent as sunitinib)

CC[S+]([O-])c1ccc2c(c1)/C(=C/c1cc3c([nH]1)CCCC3)C(=O)N2 (centres unmarked) [Example 7]
RGC Survival Activity [1]: *** (at least approximately 80% as potent as sunitinib)

Cc1c(/C=C2\C(=O)Nc3ccc(C(=O)N(C)C)cc32)[nH]c2c1CC(C)(C)CC2 [Example 8]
RGC Survival Activity [1]: ** (approximately 40-80% as potent as sunitinib)

CON(C)C(=O)c1ccc2c(c1)/C(=C/c1[nH]c3c(c1C)C(=O)C(C)(C)CC3)C(=O)N2 [Example 9]
RGC Survival Activity [1]: *** (at least approximately 80% as potent as sunitinib)

CCN(C)C(=O)c1ccc2c(c1)/C(=C/c1[nH]c3c(c1C)C(=O)C(C)(C)CC3)C(=O)N2 [Example 10]
RGC Survival Activity [1]: *** (at least approximately 80% as potent as sunitinib)

CCCCN(C)C(=O)c1ccc2c(c1)/C(=C/c1[nH]c3c(c1C)C(=O)C(C)(C)CC3)C(=O)N2 [Example 11]
RGC Survival Activity [1]: ** (approximately 40-80% as potent as sunitinib)

Cc1c(/C=C2\C(=O)Nc3ccc(C(=O)N4CCCCCC4)cc32)[nH]c2c1C(=O)C(C)(C)CC2 [Example 12]
RGC Survival Activity [1]: ** (approximately 40-80% as potent as sunitinib)

Cc1c(/C=C2\C(=O)Nc3ccc(C(=O)N4CCCC4)cc32)[nH]c2c1C(=O)C(C)(C)CC2 [Example 13]
RGC Survival Activity [1]: *** (at least approximately 80% as potent as sunitinib)

CN(C)C(=O)c1ccc2c(c1)/C(=C/c1cc3c([nH]1)CCCC3=O)C(=O)N2 [Example 14]
RGC Survival Activity [1]: *** (at least approximately 80% as potent as sunitinib)

CN(C)C(=O)c1ccc2c(c1)/C(=C/c1cc3c([nH]1)CC(C)(C)CC3=O)C(=O)N2 [Example 15]
RGC Survival Activity [1]: ** (approximately 40-80% as potent as sunitinib)

Cc1c(/C=C2\C(=O)Nc3ccc(C(=O)N(C)C)cc32)[nH]c2c1C(=O)C(C)(C)CC2 [Example 16]
RGC Survival Activity [1]: *** (at least approximately 80% as potent as sunitinib)

CCN(CC)CCNC(=O)c1c(C)[nH]c(/C=C2\C(=O)Nc3ccc([S+](C)[O-])cc32)c1C (centres unmarked) [Example 17]
RGC Survival Activity [1]: *** (at least approximately 80% as potent as sunitinib)
Neurite Promotion [2]: *** (at least approximately 80% as potent as sunitinib)

CCN(CC)CCNC(=O)c1c(C)[nH]c(/C=C2\C(=O)Nc3ccc([S+](C)[O-])cc32)c1C (centres unmarked) [Example 18]
RGC Survival Activity [1]: *** (at least approximately 80% as potent as sunitinib)
Neurite Promotion [2]: *** (at least approximately 80% as potent as sunitinib)

CCN(CC)CCNC(=O)c1c(C)[nH]c(/C=C2\C(=O)Nc3ccc([S+]([O-])CC)cc32)c1C (centres unmarked) [Example 19]
RGC Survival Activity [1]: *** (at least approximately 80% as potent as sunitinib)

CCN(CC)CCNC(=O)c1c(C)[nH]c(/C=C2\C(=O)Nc3ccc(C(=O)N4CCCC4)cc32)c1C [Example 23]
RGC Survival Activity [1]: *** (at least approximately 80% as potent as sunitinib)

CCN(CC)CCNC(=O)c1c(C)[nH]c(/C=C2\C(=O)Nc3ccc(C(=O)N(C)OC)cc32)c1C [Example 24]
RGC Survival Activity [1]: *** (at least approximately 80% as potent as sunitinib)

Cc1[nH]c(/C=C2\C(=O)Nc3ccc(C(=O)N(C)C)cc32)c(C)c1C(=O)NCCN1CCCC1 [Example 25]
RGC Survival Activity [1]: *** (at least approximately 80% as potent as sunitinib)

CCN(CC)CCNC(=O)c1c(C)[nH]c(/C=C2\C(=O)Nc3ccc(C(=O)N(C)C)cc32)c1C [Example 26]
RGC Survival Activity [1]: *** (at least approximately 80% as potent as sunitinib)

B1: FLT3 ligand: RTK ligand; ligand of the receptor tyrosine kinase FLT3 (protein, UniProt P49771 27-235, looked up)
Fms-related tyrosine kinase 3 …: TQDCSFQHSPISSDFAVKIRELSDYLLQDYPVTVASNLQDEELCGGLWRLVLAQRWMERLKTVAGSKMQGLLERVNTEIHFVTKCAFQPPPSCLRFVQTNISRLLQETSEQLVALKPWITRQNFSRCLELQCQPDSSTLPPPWSPRPLEATAPTAPQPPLLLLLLLPVGLLLLAAAWCLHWQRTRRRTPRPGEQVPPVPSPQDLLLVEH
reduction of RGC survival ([3]; 4 ng/ml (its EC50)): does not do so
reduction of RGC survival ([3]; 16 ng/ml, four times its EC50): 38.3%
EC50 [4]: 4 ng/mL
